{
  "source": "patent US20050171216A1",
  "about": "“Germicidal compositions containing phthalaldehyde mixtures and methods of using such compositions for disinfection or sterilization” (priority 2004, published 2005)",
  "key": {"[1]": {"system": "Mycobacterium terrae bacteria", "test": "bacterial suspension test (killing of at least 1×10^6/mL bacteria)", "format": "cell-based", "details": "for Log Reductions/mL: 20° C.; for Germicidal Efficacy: summary Table 14", "method": "The bacterial suspension test that was employed is described in Section VII.\nThe solutions were prepared by adding the appropriate amounts of the germicidal compounds to an aqueous solution. Unless otherwise mentioned all concentrations reported herein are expressed in (w/v) %. The pH of the solution was not adjusted. The tests were conducted at a temperature of about 20° C. (room temperature). The results are presented in terms of log reductions/mL. It is understood that these examples, as well as the other examples herein, are to be construed as merely illustrative, and not limiting.\nIn this test method, 9 mL of the germicide to be tested is placed in a tube, put into a water bath and allowed to come to the desired temperature. One mL of the test organism, including at least 7 logs/mL of Mycobacterium terrae bacteria, is added to the 9 mL of the germicide to be tested. […] It will be appreciated by those skilled in the art that other concentrations may be utilized by proper dilution and accounting.\nAt appropriate time intervals, 1 mL aliquots of the germicide-cell suspension were removed and added directly into 9 mL of a 1% glycine solution (neutralizer) and mixed thoroughly to neutralize the germicide in the transferred suspension. The glycine solution was prepared from solid glycine, which is available from VWR Scientific Products, among others. The above-identified 10 mL neutralized solution was then poured through a membrane filter having an average pore size of 0.45 micrometers. The filter was then rinsed twice with at least 150 mL of the 1% glycine solution per rinse. The filter was then placed on an agar plate and incubated for twenty-one days at 37° C. In the above procedure, if dilution was needed, then the 1 mL germicidal-cell suspension was diluted in 99 mL of a phosphate buffer before addition to the 9 mL of the 1% glycine solution. The phosphate buffer was DiLu-LoK™ Butterfields Phosphate Buffer, available from Hardy Diagnostics, of Santa Maria, Calif.\nThe surviving colonies are then counted. The data is plotted as S/So vs. time. So is the initial count of the bacteria in the above 10 mL solution which is at least 10^6 bacteria/mL, and S is the surviving bacteria from the above filter on the agar plate. The results of the experiments were presented in terms of log reductions. Log reduction is the difference between log(So) and log(S). As one example, if log(So)=6.2, and if there were 100 survivors, then the log(S)=2, and the log reduction was reported as 4.2."}, "solubility in water": {"test": "solubility in water", "format": "physicochemical", "details": "for Concentration, Saturated: saturated aqueous germicidal solution, pH not adjusted"}},
  "data": [
    {"compound": "O=Cc1ccc(F)cc1C=O", "note": "[4-fluoro-phthalaldehyde]", "values": [
      {"measurement": "Log Reductions/mL", "setting": "[1]; 0.25%, 60 minutes exposure", "value": "Total Kill"}
    ]},
    {"compound": "O=Cc1ccc(C=O)cc1", "note": "[TPA, terephthalaldehyde]", "values": [
      {"measurement": "Log Reductions/mL", "setting": "[1]; 0.2%, dissolved in 20% isopropanol, 5 min", "value": "Confluent"},
      {"measurement": "Germicidal Efficacy", "setting": "[1]", "value": "Poor"}
    ]},
    {"compound": "O=Cc1ccc(Br)cc1C=O", "note": "[4-bromo-phthalaldehyde]", "values": [
      {"measurement": "Log Reductions/mL", "setting": "[1]; 0.1%, 10 minutes", "value": 5.6, "unit": "log reductions/mL"},
      {"measurement": "Log Reductions/mL", "setting": "[1]; 0.1%, 30 minutes", "value": "Total Kill"}
    ]},
    {"compound": "O=CC(C=O)c1cccc(C(=O)O)c1[N+](=O)[O-]", "note": "[3-(1-formyl-2-oxoethyl)-2-nitro-benzoic acid]", "values": [
      {"measurement": "Log Reductions/mL", "setting": "[1]; Saturated (˜2.1% w/v), 5 min", "value": 4.0, "unit": "log reductions/mL"},
      {"measurement": "Concentration, Saturated", "setting": "solubility in water", "value": "(˜2.1%) w/v %"}
    ]},
    {"compound": "O=CC(C=O)c1ccccc1", "note": "[phenyl-propanedial]", "values": [
      {"measurement": "Log Reductions/mL", "setting": "[1]; 0.2%, 60 min", "value": 2.1, "unit": "log reductions/mL"},
      {"measurement": "Log Reductions/mL", "setting": "[1]; 0.22%, 60 min", "value": 2.1, "unit": "log reductions/mL"},
      {"measurement": "Log Reductions/mL", "setting": "[1]; 0.3%, 30 min", "value": 2.1, "unit": "log reductions/mL"},
      {"measurement": "Log Reductions/mL", "setting": "[1]; 0.33%, 30 min", "value": 2.1, "unit": "log reductions/mL"},
      {"measurement": "Log Reductions/mL", "setting": "[1]; 0.4%, 30 min", "value": 2.5, "unit": "log reductions/mL"},
      {"measurement": "Log Reductions/mL", "setting": "[1]; 0.44%, 30 min", "value": 2.5, "unit": "log reductions/mL"},
      {"measurement": "Log Reductions/mL", "setting": "[1]; 0.66%, 5 min", "value": "<2.5", "unit": "log reductions/mL"},
      {"measurement": "Log Reductions/mL", "setting": "[1]; 0.66%, 10 min", "value": 2.5, "unit": "log reductions/mL"},
      {"measurement": "Log Reductions/mL", "setting": "[1]; 0.7%, 10 min", "value": 2.5, "unit": "log reductions/mL"},
      {"measurement": "Log Reductions/mL", "setting": "[1]; ˜1%, 5 min (Table 15)", "value": 4.5, "unit": "log reductions/mL"},
      {"measurement": "solubility in water", "setting": "solubility in water", "value": "about 1%"}
    ]},
    {"compound": "O=Cc1ccccc1C=O", "note": "[OPA, phthalaldehyde]", "values": [
      {"measurement": "Log Reductions/mL", "setting": "[1]; 0.14%, 5 min", "value": 4.8, "unit": "log reductions/mL"},
      {"measurement": "Log Reductions/mL", "setting": "[1]; 0.28%, 5 min", "value": 5.5, "unit": "log reductions/mL"},
      {"measurement": "Germicidal Efficacy", "setting": "[1]", "value": "Good"},
      {"measurement": "solubility in water", "setting": "solubility in water", "value": "about 5 % by weight"}
    ]},
    {"compound": "O=Cc1ccc(Cl)cc1C=O", "note": "[4-chloro-phthalaldehyde]", "values": [
      {"measurement": "Log Reductions/mL", "setting": "[1]; 0.2 w/v %, 5 min", "value": 5.9, "unit": "log reductions/mL"},
      {"measurement": "Log Reductions/mL", "setting": "[1]; 2.7 w/v % in 20% isopropanol, 5 min", "value": "Total Kill"}
    ]},
    {"compound": "O=Cc1ccccc1C(O)S(=O)(=O)[O-].[Na+]", "note": "(stereo not drawn) [(2-formyl-phenyl)-hydroxy-methane sulfonic acid, sodium salt]", "values": [
      {"measurement": "Log Reductions/mL", "setting": "[1]; 9.1%, no dialdehyde, 5 min, listed as (2-formyl-phenyl)-hydroxy-methane sulfonate, sodium salt", "value": "confluent"},
      {"measurement": "Log Reductions/mL", "setting": "[1]; 9.1%, no dialdehyde, 5 min, listed as H-SULF, sodium salt", "value": "Confluent"}
    ]},
    {"compound": "O=Cc1cccc(C=O)c1", "note": "[IPA, isophthalaldehyde]", "values": [
      {"measurement": "Log Reductions/mL", "setting": "[1]; 0.3%, dissolved in 20% isopropanol, 5 min", "value": "Confluent"},
      {"measurement": "Log Reductions/mL", "setting": "[1]; 0.3%, dissolved in 20% isopropanol, 5 min (Table 15)", "value": "Confluent"},
      {"measurement": "Germicidal Efficacy", "setting": "[1]", "value": "Poor"}
    ]},
    {"compound": "4-pyridinyl-propanedial", "values": [
      {"measurement": "Log Reductions/mL", "setting": "[1]; Saturated (˜2.3% w/v), 5 min", "value": 4.0, "unit": "log reductions/mL"},
      {"measurement": "Concentration, Saturated", "setting": "solubility in water", "value": "(˜2.3%) w/v %"}
    ]},
    {"compound": "O=CC(c1ccccc1)C(O)S(=O)(=O)[O-].[Na+]", "note": "(stereo not drawn) [1-hydroxy-3-oxo-2-phenyl-propane-1-sulfonic acid, sodium salt]", "values": [
      {"measurement": "Log Reductions/mL", "setting": "[1]; 0.6%, 5 min", "value": 2.1, "unit": "log reductions/mL"},
      {"measurement": "Log Reductions/mL", "setting": "[1]; 0.6%, 20 min", "value": 2.5, "unit": "log reductions/mL"},
      {"measurement": "Log Reductions/mL", "setting": "[1]; 0.6%, 25 min", "value": 2.9, "unit": "log reductions/mL"},
      {"measurement": "Log Reductions/mL", "setting": "[1]; 0.6%, 60 min, sodium salt", "value": "total kill"},
      {"measurement": "Log Reductions/mL", "setting": "[1]; 2.5%, 10 min, sodium salt", "value": "total kill"}
    ]}
  ]
}
